Measurements: paper PMC5789847, “Bismuth antimicrobial drugs serve as broad-spectrum metallo-β-lactamase inhibitors” (Nature Communications, 2018)

How the values were obtained:
[1] = biological target: T1, NDM-1-C208A (Klebsiella pneumoniae, UniProt C7C422, C208A); experiment: Residual enzyme activity of NDM-1 variant with CBS at IC50; type: biochemical; details: CBS at IC50 concentration, compared with WT NDM-1
[2] = tested on: IMP-BL21 (IMP-4^+); experiment: microbe, parasite or virus in culture; type: cell-based, E. coli; details: IMP-BL21
[3] = tested on: NDM-HK (NDM-1^+); experiment: microbe, parasite or virus in culture; type: cell-based, E. coli
[4] = tested on: VIM-BL21 (VIM-2^+); experiment: microbe, parasite or virus in culture; type: cell-based, E. coli; details: VIM-BL21
[5] = set-up: method as in earlier work; details: treatment of peptic ulcer disease; cited from earlier work
[6] = tested on: NDM-HK; experiment: Murine peritonitis infection, mucin-assisted model; type: in vivo, BALB/c mice; details: 2% mucin
Description: All experiments were approved by, and performed in accordance with the guidelines approved by Committee on the Use of Live Animals in Teaching and Research (CULATR), the University of Hong Kong. A total of 6–8-week-old, female BALB/c mice (18–22 g) were purchased from Charles River Laboratories, Inc. and were used in all mouse studies. The animals were randomized to cages for each experiment.
In mucin-assisted model, for infection with NDM-1-positive bacteria, an overnight culture of NDM-HK was performed 1:250 dilution in 100 mL LB broth and re-grew to about OD600 0.3 in a 500-mL flask after 2.5 h shaking at 37 °C, 250 rpm. Bacterial pellets were collected and washed by PBS buffer three times for further use. Mice were infected intraperitoneally (i.p.) with a dose of 1 × 10^5 CFU of bacteria in PBS supplemented with 2% mucin. […] Twice-daily treatment via i.p. injection was continued throughout the whole experimental course. For the infection with NDM-1-negative bacteria, all the operations of infection were similar to those used for NDM-HK, except that NDM-HK PCV was used as infection-causing bacteria. […] Twice-daily treatment via i.p. injection was continued throughout the whole experimental course. Body weights and mice survival were monitored till endpoint of the experiment.

[7] = tested on: NDM-HK; experiment: In vitro cell infection assay (MDCK cells); type: cell-based, E. coli
Description: MDCK cell was cultured in minimum essential Media (MEM) supplemented with fetal bovine serum (FBS, 10%) and grown at 37 °C in 5% CO2-humidified atmosphere for 3 days. About 1.0 × 10^5 MDCK cells were seeded per well in 24-well plates and incubated as described above for 48 h to ensure confluency. Logarithmic cultures of NDM-HK were washed with PBS for three times and re-suspended in MEM/10% FBS resulting in the initial bacterial density of about 2.0 × 10^7 CFU mL^−1. Then, 500 μL of bacterial suspension were added to each well and substituted for the previous MDCK culture medium. The plates were centrifuged at 800 × g for 10 min and then incubated for another 6 h, executing the bacterial infection at multiplicity of infection (MOI) of 200. We then used two infection models for examination, viz, the cell-associated bacterial infection and cell-invaded bacterial infection. The cell-associated bacteria are herein defined as bacteria that attach to, penetrate, or transcytose in MDCK cells, while the cell-invaded bacteria are defined as bacteria that penetrate or transcytose MDCK cells. For the cell-invaded infection, the infected cells were incubated in culture medium supplemented with ciprofloxacin (100 µg mL^−1) for 1 h to remove extracellular bacteria. Then, the treated cells were washed vigorously with PBS for six times and replenished with culture medium. For the cell-associated infection, the infected cells were only washed vigorously with PBS for six times to remove unbound bacteria. The infected MDCK cells were then exposed to either MER or CBS, or their combination for overnight under identical cell culture condition. Cells in the absence of drugs served as a control. The bacterial loads were examined by lysing MDCK cells with 1% Triton X-100 in PBS and serially diluting the resulting lysates to enumerate bacterial colonies by agar plating. The assay was performed in triplicate, repeated three times, and results were expressed as average ± SD.

[8] = tested on: E. coli BL21(DE3); experiment: Microdilution MIC assay; type: cell-based
Description: (§1) Other procedures were kept strictly the same.

[9] = tested on: E. coli Rosetta(DE3); experiment: Microdilution MIC assay; type: cell-based
Description: as §1

[10] = tested on: E. coli ATCC 25922; experiment: Microdilution MIC assay; type: cell-based
Description: as §1

[11] = biological target: T1, NDM-1-C208A; experiment: Cellular thermal shift assay, mutant strain C208A-Rosetta; type: cell-based, E. coli; details: control 48.24 °C
[12] = MER + compound, 256 µg mL^-1 set as MIC of Bi(III)

T1 sequence (C7C422 29-270 C208A): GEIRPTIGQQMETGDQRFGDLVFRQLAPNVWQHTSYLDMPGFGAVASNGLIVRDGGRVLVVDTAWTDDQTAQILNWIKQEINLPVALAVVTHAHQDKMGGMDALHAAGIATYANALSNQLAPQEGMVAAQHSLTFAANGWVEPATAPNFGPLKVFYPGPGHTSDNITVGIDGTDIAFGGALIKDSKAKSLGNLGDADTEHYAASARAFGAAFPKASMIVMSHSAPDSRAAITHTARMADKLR

With colloidal bismuth subcitrate [CBS] as the substance, how does the “inhibitory effect on NDM-1-C208A” value [1] read?
The value was “much reduced inhibitory effect”.

What about the “MBC of Bi(III) compound alone” value [2] of the same substance?
The value was greater than 256 µg/mL.

And the “MBC of MER in combination with compound at 32 µg mL^-1” value (“MBC of MER in combination” for short) [2]?
Its value is 8 µg/mL.

What about the “MIC of Bi(III) compound alone” value [2] of the same substance?
Its value is greater than 256 µg/mL.

And the “MIC of MER in combination with compound at 32 µg mL^-1” value (“MIC of MER … at 32 µg mL^-1” below) [2]?
Its value is 4 µg/mL.

And the FICI [2, 12]?
Its FICI is 0.187.

And the “growth inhibition by CBS itself” value ([3]; NDM-1-positive NDM-HK, even at 256 µg mL^-1)?
The value was “no or minor growth inhibition”.

What about the “MBC of Bi(III) compound/inhibitor alone” value ([3]; NDM-HK) of the same substance?
The value was greater than 256 µg/mL.

And the “MBC of MER in combination” value ([3]; NDM-HK)?
Its value is 4 µg/mL.

And the “MIC of Bi(III) compound/inhibitor alone” value ([3]; NDM-HK)?
Its value is greater than 256 µg/mL.

What about the “MIC of MER in combination with CBS at 16 µg mL-1” value (“MIC of MER … at 16 µg mL-1” for short) ([3]; NDM-HK) of the same substance?
Its value is 4 µg/mL.

And the “MIC of MER in combination with CBS at 256 µg mL-1” value (“MIC of MER … at 256 µg mL-1” below) ([3]; NDM-HK)?
The value was 2 µg/mL.

What about the “MIC of MER … at 32 µg mL^-1” value ([3]; NDM-HK) of the same substance?
Its value is 2 µg/mL.

And the FICI ([3]; NDM-HK, MER + compound, 256 µg mL^-1 set as MIC of Bi(III), 128 for Bi(NAC)3)?
The FICI was 0.250.

And the “MBC of Bi(III) compound alone” value [4]?
Its value is greater than 256 µg/mL.

And the “MBC of MER in combination” value [4]?
The value was 1 µg/mL.

And the “MIC of Bi(III) compound alone” value [4]?
Its value is greater than 256 µg/mL.

And the “MIC of MER … at 32 µg mL^-1” value [4]?
The value was 0.5 µg/mL.

And the FICI [4, 12]?
The FICI was 0.047.

What about the “intoxication at recommended dosage” value [5] of the same substance?
Its value is “No intoxication has been documented”.

What about the “protection from death, CBS monotherapy” value ([6]; i.p. twice daily from 4 h post infection, CBS 20 mg kg^−1 (Fig. 4f), within 48 h) of the same substance?
Its value is “failed to protect any of the mice from death”.

And the “mice survival rate, combination therapy of MER and CBS” value ([6]; i.p. twice daily, MER + CBS 20 mg kg^−1 (Fig. 4f))?
The value was 50%.

And the “decrease in the bacterial load, bacteria-invaded model” value ([7]; MER and CBS combination)?
The value was “more than 100 fold”.

And the “viable bacterial loads, cell-associated infection” value ([7]; MOI 200, MER and CBS (32 μg mL^−1) in combination, overnight)?
The value was ~10^4 CFU.

And the “MIC of MER … at 16 µg mL-1” value [8]?
Its value is 0.03 µg/mL.

What about the “MIC of MER in combination with CBS at 32 µg mL-1” value (“MIC of MER … at 32 µg mL-1” below) [8] of the same substance?
The value was 0.03 µg/mL.

And the “MIC of MER … at 256 µg mL-1” value [8]?
The value was 0.03 µg/mL.

And the “MIC of MER … at 16 µg mL-1” value [9]?
The value was 0.03 µg/mL.

And the “MIC of MER … at 32 µg mL-1” value [9]?
The value was 0.03 µg/mL.

What about the “MIC of MER … at 256 µg mL-1” value [9] of the same substance?
Its value is 0.03 µg/mL.

And the “MIC of MER … at 16 µg mL-1” value [10]?
Its value is 0.03 µg/mL.

And the “MIC of MER … at 32 µg mL-1” value [10]?
The value was 0.03 µg/mL.

And the “MIC of MER … at 256 µg mL-1” value [10]?
Its value is 0.03 µg/mL.

What about the “melting temperature, treated group” value [11] of the same substance?
The value was 49.72 °C.
